Assay results reported in patent US20260354377A1, “INSECTICIDAL AND ARACHNIDICIDAL COMPOSITIONS AND USES THEREOF” (priority 2023, published 2026).
“Also recorded” adds a separate entry of the source.

Experiments:
Blata orientalis [1] = assay: Evaluation of insecticidal effect of individual components (Example 9); assay type: in vivo, Oriental cockroach; conditions: 0.3 grams on back, pairs; for Alive: weight %: caprylic acid 0.8, Miglyol 0.2, Tween 80 0.015, lecithin 0.15, DPPG 0.12, xanthan gum 0.0075; for Dead: caprylic acid 0.8, Emulsion Table 1 5.0 weight %
Method: In order to evaluate the effect of individual components, the higher concentration of each was used, these are marked with an asterisk as presented in Table 9
The cockroach Blata orientalis was used as described in Example 1 part 3 because of its size, ease of application and predictable response to the formulation.
Pairs of insects were treated by applying 0.3 grams (ml) of test items from Table 9 above directly onto their backs following which individual insects were placed in separate plastic containers and observed over a period of one hour and overnight. A 5% aqueous dispersion of the emulsion from Table 1 and sterile distilled water were used as controls.

[2] = Stability of aqueous dispersions of components; assay type: physicochemical; conditions: laboratory homogeniser dispersion in water
Blata orientalis [3] = assay: Efficacy of NAC and PCA supplemented Reactive Emulsions, spray (Example 13); assay type: in vivo, Oriental Cockroach; conditions: 50 mM citrate buffer, NAC or PCA 0.1%, emulsion 5% where present; for Alive / Immobile / Moribund: ten insects
Method: In one embodiment of the present invention, Reactive Emulsions of this invention are acidic and are kept at or below pH 5.5 to retain reactivity. For this reason 0.1% W/W solutions of NAC and PCA were prepared in 50 mM sodium citrate buffer at pH 5.0 and reduced fatty acid Reactive Emulsion concentrate (Table 15) was added to these at 5% by weight.
NAC and PCA controls were prepared by dissolving 0.1% of each in 50 mM sodium citrate buffer • reduced fatty acid Reactive Emulsions were used to illustrate the additive effect of NAC and PCA because the rate of activity of higher concentration fatty acid Emulsions would swamp the effect.
A 5% by weight suspension of Emulsion concentrate was prepared in 50 mM sodium citrate buffer without either NAC or PCA was prepared as a negative control and 50 mM buffer on its own was used as a blank.
(§1) The Oriental Cockroach Blata Orientalis was used to evaluate the efficacy of the NAC and PCA supplemented reactive emulsion and the experimental design was the same as in Example 1. Individual insects were lifted with tweezers and sprayed with either NAC or PCA supplemented test formulations, negative control or buffer blank, ten insects in each case, and evaluated after 1 hour and 10 hours.

[4] = Solubility and solution properties; conditions: for solubility: water or oil
Method: An aqueous dispersion of de-lipidised lecithin and DPPG is prepared by blending the component with water at the desired concentration and allowing at least one hour to fully hydrate.
Both of these are water soluble and may be added to the water phase of either the emulsion concentrate or the diluted suspension.

Blata orientalis [5] = assay: Efficacy of Permethrin delivered in reduced fatty acid Reactive Emulsion, spray (Example 12); assay type: in vivo, Oriental Cockroach; conditions: emulsion concentrates diluted to 5% in water, where present, 0.1%
Method: Permethrin was added to the oil phase at 2 grams in 20 of total oil (oil phase) which is 2% of the concentrated reactive emulsion. For use in the test the concentrate was diluted to 5% in water, that is 1% oil phase containing 0.1% Permethrin (10% of recommended dose).
A Reactive Emulsion control was prepared using the formulation in Table 13 by replacing Permethrin with Miglyol at 15% and free fatty acid at 5%.
as §1, with “non-reactive” for “NAC and PCA supplemented reactive”, “non-reactive” for “NAC or PCA supplemented”, “formulation, positive” for “formulations, negative”, “water” for “buffer”

lice = conditions: approved by FDA as a 1% solution; cited from earlier work
hematophagous insects = conditions: cited from earlier work

| Structure (SMILES) | Alive (Blata orientalis [1]; 1 hour post treatment) | Alive (Blata orientalis [1]; 18 hours post treatment) | stability of aqueous dispersion [2] | Alive (Blata orientalis [3]; 1 hour) | Immobile (Blata orientalis [3]; 1 hour) | Moribund (Blata orientalis [3]; 1 hour) | Mortality / efficacy (Blata orientalis [3]; 10 hours, 600 min) | Alive (Blata orientalis [3]; 10 hours) | Immobile (Blata orientalis [3]; 10 hours) | Moribund (Blata orientalis [3]; 10 hours) | solubility [4] | other results |
| --- | --- | --- | --- | --- | --- | --- | --- | --- | --- | --- | --- | --- |
| CCCCCCCC(=O)O [Caprylic acid] | 2 | 1 | co-acervate and settle out within minutes of being formed | – | – | – | – | – | – | – | – | Dead (Blata orientalis [1]; 18 hours post treatment): 1; Dead (Blata orientalis [1]; 18 hours post treatment, listed as caprylic acid): one |
| CCCCCCCCCCCCCCCC(=O)OCC(COP(=O)(O)OCC(O)CO)OC(=O)CCCCCCCCCCCCCCC (centres unmarked) [DPPG, di-palmitoyl phosphatidyl glycerol] | 2 | 2 | tendency to settle out | – | – | – | – | – | – | – | – | – |
| CC(=O)N[C@@H](CS)C(=O)O [N-acetyl Cysteine, N-Acetyl Cysteine] | – | – | – | 10 | 0 | 0 | 10% | 9 | 1 | 0 | water soluble | Mortality / efficacy (Blata orientalis [3]; 1 hour, 60 min): 0%; Mortality / efficacy (Blata orientalis [3]; 1 hour, listed as NAC): no effect; Mortality / efficacy (Blata orientalis [3]; 10 hours, listed as NAC, 600 min): 10%; pH in solution ([4]; in solution): slightly basic pH in solution |
| CC1(C)C(C=C(Cl)Cl)C1C(=O)OCc1cccc(Oc2ccccc2)c1 (centres unmarked) [Permethrin] | – | – | – | – | – | – | – | – | – | – | sparingly soluble in water; also recorded: basically oil soluble | Mortality (Blata orientalis [5]; 1 hour): 0%; Alive (Blata orientalis [5]; 1 hour, ten insects): 10; Mortality / efficacy (Blata orientalis [5]; 10 hours, 600 min): 30%; Alive (Blata orientalis [5]; 10 hours, ten insects): 7; Immobile (Blata orientalis [5]; 10 hours, ten insects): 0; Moribund (Blata orientalis [5]; 10 hours, ten insects): 3; effectiveness against lice (lice): effective against adult lice but not their eggs |
| CCC(C)OC(=O)N1CCCCC1CCO (centres unmarked) [Picaridin] | – | – | – | – | – | – | – | – | – | – | – | repellent effect (hematophagous insects): broad spectrum effects combined with low toxicity |
| O=C1CCC(C(=O)O)N1 (centres unmarked) [Pyrrolidone Carboxylic Acid, 2-Pyrrolidone-5-Carboxylic Acid] | – | – | – | 10 | 0 | 0 | 20% | 8 | 0 | 2 | – | Mortality / efficacy (Blata orientalis [3]; 1 hour): 0%; Mortality / efficacy (Blata orientalis [3]; 10 hours, listed as PCA, 600 min): 20% |
